Laboratory results as given in ChEMBL document CHEMBL1201862, “PubChem BioAssay data set” (2004).
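In this assay, cells in 96-well plates receive the compound at five concentrations for 48 hours. Endpoints are linearly interpolated between the surrounding concentrations. GI50 marks 50% less growth.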 Active and inactive are the calls of the source. Cut-off read from the data, not from the text of the source: active = GI50 up to about 1.1 µM and inactive = higher.

Legend:
Test in all cases: NCI anticancer screen, dose series, 48 h
[1] = system: KM12
[2] = system: MOLT-4
[3] = system: OVCAR-4
[4] = system: SW-620
[5] = system: CAKI-1
[6] = system: 786-0
[7] = system: HL-60
[8] = system: M14
[9] = system: DMS-273
[10] = system: SNB-78
[11] = system: RXF 631
[12] = system: Malme-3M
[13] = system: DMS-114
[14] = system: SNB-75
[15] = system: M19-MEL
[16] = system: HOP-18
[17] = system: HT-29
[18] = system: OVCAR-3
[19] = system: KM-20L2
[20] = system: SN12C
[21] = system: OVCAR-8
[22] = system: A498
[23] = system: SF-295
[24] = system: EKVX
[25] = system: SF-539
[26] = system: RXF 393
[27] = system: NCI-H23
[28] = system: LXFL 529
[29] = system: SK-OV-3
[30] = system: K562
[31] = system: HCT-15
[32] = system: HOP-92
[33] = system: U-251
[34] = system: A549
[35] = system: NCI-H522
[36] = system: XF498
[37] = system: SF-268
[38] = system: IGROV-1
[39] = system: OVCAR-5
[40] = system: RPMI-8226
[41] = system: NCI-H226
[42] = system: LOX IMVI
[43] = system: SK-MEL-28
[44] = system: NCI-H460
[45] = system: SNB-19
[46] = system: UO-31
[47] = system: HCT-116
[48] = system: COLO 205
[49] = system: TK-10
[50] = system: SK-MEL-5
[51] = system: UACC-62
[52] = system: CCRF-CEM
[53] = system: UACC-257
[54] = system: SK-MEL-2
[55] = system: ACHN
[56] = system: HCC 2998
[57] = system: HOP-62
[58] = system: DLD-1

Measured: GI50

O=P(c1ccccc1)(c1ccccc1)C1CC=C2CCCCCC2C1 (stereo not drawn)
inactive: [1] 38.5 µM | [2] 18.8 µM | [3] 26.2 µM | [4] > 10 µM | [5] 23.7 µM | [6] 22.6 µM | [7] 27.2 µM | [8] 21.8 µM | [9] 27.4 µM | [10] 40.2 µM | [11] 27.2 µM | [12] 38.9 µM | [13] 24.5 µM | [14] 25.1 µM | [15] 36 µM | [16] 19.2 µM | [17] 37.2 µM | [18] 23.8 µM | [19] > 10 µM | [20] 30.6 µM | [21] 31 µM | [22] 35.9 µM | [23] 41.3 µM | [24] 37.9 µM | [25] > 10 µM | [26] 28.8 µM | [27] 30.2 µM | [28] 21.4 µM | [29] 36.9 µM | [30] 28.3 µM | [32] 11 µM | [33] 67 µM | [34] > 10 µM | [35] 17.2 µM | [36] 33 µM | [37] 23.3 µM | [38] 37.6 µM | [39] 23.2 µM | [40] 16.1 µM | [41] 26.3 µM | [42] 26.1 µM | [43] > 10 µM | [44] 32.7 µM | [45] 27.6 µM | [46] 21.8 µM | [47] 19.6 µM | [48] 24.1 µM | [49] 58.7 µM | [50] 19.2 µM | [51] 23.9 µM | [52] 23.6 µM | [53] 25 µM | [54] 29.9 µM
37.2 µM: [31]

O=C1/C(=C/c2ccccc2Cl)COc2ccccc21
inactive: [1] 10.8 µM | [2] 5.79 µM | [4] 5.73 µM | [6] 15.2 µM | [7] 17.6 µM | [9] 15 µM | [10] 19.3 µM | [55] 19.1 µM | [11] 19.2 µM | [12] 15.5 µM | [13] 18 µM | [14] 18 µM | [15] 18.6 µM | [16] 11.8 µM | [17] 19 µM | [18] 18.2 µM | [19] 18.5 µM | [56] 20.9 µM | [57] 16.9 µM | [21] 17.2 µM | [22] 16.6 µM | [23] 19.1 µM | [58] 15.3 µM | [24] 16 µM | [25] 17.3 µM | [26] 15.5 µM | [27] 19.1 µM | [28] 17.5 µM | [29] 32.6 µM | [30] 3.93 µM | [32] 15.1 µM | [33] 13.7 µM | [34] 22.6 µM | [35] 16.6 µM | [36] 15.6 µM | [37] 17.5 µM | [38] 18.1 µM | [39] 17.8 µM | [40] 3.53 µM | [42] 15.3 µM | [43] 16.3 µM | [44] 20.5 µM | [46] 15.1 µM | [47] 4.75 µM | [48] 21.7 µM | [49] 13.8 µM | [52] 4.73 µM | [53] 15.1 µM | [54] 15.5 µM
